# Reference: US12612360B2 (Sanofi, priority 2020, dated 2026)
# Biological target: T1, ERα (Homo sapiens, UniProt P03372)
# T1 construct: host or cells: MCF7
# T1 sequence (P03372 1-595): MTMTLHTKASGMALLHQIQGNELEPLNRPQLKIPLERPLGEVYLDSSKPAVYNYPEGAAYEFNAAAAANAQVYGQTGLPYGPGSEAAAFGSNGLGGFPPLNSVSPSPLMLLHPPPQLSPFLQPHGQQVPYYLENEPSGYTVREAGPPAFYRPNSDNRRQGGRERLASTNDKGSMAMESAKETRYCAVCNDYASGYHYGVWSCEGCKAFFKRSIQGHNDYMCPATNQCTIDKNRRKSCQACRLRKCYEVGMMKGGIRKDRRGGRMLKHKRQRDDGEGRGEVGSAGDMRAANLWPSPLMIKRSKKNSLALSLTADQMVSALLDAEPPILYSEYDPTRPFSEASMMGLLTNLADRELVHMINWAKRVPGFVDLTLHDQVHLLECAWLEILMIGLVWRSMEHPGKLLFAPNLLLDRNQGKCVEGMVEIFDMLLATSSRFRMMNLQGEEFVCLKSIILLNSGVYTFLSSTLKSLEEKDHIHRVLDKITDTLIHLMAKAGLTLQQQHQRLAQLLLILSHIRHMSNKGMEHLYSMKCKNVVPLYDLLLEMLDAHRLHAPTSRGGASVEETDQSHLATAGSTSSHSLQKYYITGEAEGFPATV
# Assay: Estrogen receptor degradation activity: breast cancer cell ERα in cell western assay (MCF7 cells)
# Format: cell-based
# Settings: for % Degradation At 0.3 μM: 4 hours, relative to fulvestrant 0.1 μM positive control; for DC50: 4 hours post compound addition, concentration which degrades 50% of the estrogen receptor, read-out: Degradation IC50
# In short: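 In-cell western readout: ERα immunofluorescence (Alexa 488) normalised to DNA signal (Syto-64) after formalin fixation. Compounds dosed for 4 h on MCF7 cells in stripped-serum, phenol-red-free medium over nine 1:5 steps, 0.3 to […] final; fulvestrant 0.1 μM control. IC50 in nM for 50% ERα degradation.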
% Degradation At 0.3 μM [%],DC50 [nM],SMILES
90,0.5,"Cl.O=C(O)c1ccc2c(c1)CCCC(c1ccc(C(F)(F)F)cc1)=C2c1ccc(C=C2CN(CCCF)C2)cc1 [Example 185, 9-(4-((1-(3-fluoropropyl)azetidin-3-ylidene)methyl)phenyl)-8-(4-(trifluoromethyl)phenyl)-6,7-dihydro-5H-benzo[7]annulene-3-carboxylic acid hydrochloride]"
94,1,"O=C(O)c1ccc2c(c1)CCCC(c1cccc(C(F)(F)F)c1F)=C2c1ccc(C=C2CN(CCC(F)F)C2)cc1 [Example 129, 9-(4-((1-(3,3-difluoropropyl)azetidin-3-ylidene)methyl)phenyl)-8-(2-fluoro-3-(trifluoromethyl)phenyl)-6,7-dihydro-5H-benzo[7]annulene-3-carboxylic acid]"
92,0.5,"O=C(O)c1ccc2c(c1)CCCC(c1cc(C(F)(F)F)ccc1Cl)=C2c1ccc(C=C2CN(CCCF)C2)cc1 [Example 140, 8-(2-chloro-5-(trifluoromethyl)phenyl)-9-(4-((1-(3-fluoropropyl)azetidin-3-ylidene)methyl)phenyl)-6,7-dihydro-5H-benzo[7]annulene-3-carboxylic acid]"
97,3.1,"Cc1cc(F)ccc1C1=C(c2ccc(C=C3CN(CCCF)C3)cc2C#N)c2ccc(C(=O)O)cc2CCC1 [Example 139, 9-(2-cyano-4-((1-(3-fluoropropyl)azetidin-3-ylidene)methyl)phenyl)-8-(4-fluoro-2-methylphenyl)-6,7-dihydro-5H-benzo[7]annulene-3-carboxylic acid]"
96,0.5,"O=C(O)c1ccc2c(c1)CCCC(c1ccc(F)c(F)c1F)=C2c1ccc(C=C2CN(CCCF)C2)cc1 [Example 135, 9-(4-((1-(3-fluoropropyl)azetidin-3-ylidene)methyl)phenyl)-8-(2,3,4-trifluorophenyl)-6,7-dihydro-5H-benzo[7]annulene-3-carboxylic acid]"
90,0.9,"[2H]C([2H])(CC(F)F)N1CC(=Cc2ccc(C3=C(c4ccc(Cl)cc4Cl)CCCc4cc(C(=O)O)ccc43)cc2)C1 [Example 117, 8-(2,4-dichlorophenyl)-9-(4-((1-(3,3-difluoropropyl-1,1-d2)azetidin-3-ylidene)methyl)phenyl)-6,7-dihydro-5H-benzo[7]annulene-3-carboxylic acid]"
97,0.4,"O=C(O)c1ccc2c(c1)CCCC(c1ccc(F)cc1Cl)=C2c1ccc(C=C2CN(CCCF)C2)cc1 [Example 79, 8-(2-chloro-4-fluorophenyl)-9-(4-((1-(3-fluoropropyl)azetidin-3-ylidene)methyl)phenyl)-6,7-dihydro-5H-benzo[7]annulene-3-carboxylic acid]"
101,0.2,"Cc1ccc(C2=C(c3ccc(C=C4CN(CCCF)C4)cc3)c3ccc(C(=O)O)cc3CCC2)c(C(F)(F)F)c1 [Example 70, 9-(4-((1-(3-fluoropropyl)azetidin-3-ylidene)methyl)phenyl)-8-(4-methyl-2-(trifluoromethyl)phenyl)-6,7-dihydro-5H-benzo[7]annulene-3-carboxylic acid]"
96,0.3,"Cc1cc(F)ccc1C1=C(c2ccc(C=C3CN(CCCF)C3)cc2)c2ccc(C(=O)O)cc2CCC1 [Example 98, 8-(4-fluoro-2-methylphenyl)-9-(4-((1-(3-fluoropropyl)azetidin-3-ylidene)methyl)phenyl)-6,7-dihydro-5H-benzo[7]annulene-3-carboxylic acid]"
93,0.3,"O=C(O)c1ccc2c(c1)CCCC(c1c(F)cc(C(F)(F)F)cc1F)=C2c1ccc(C=C2CN(CCCF)C2)cc1 [Example 21, 8-(2,6-difluoro-4-(trifluoromethyl)phenyl)-9-(4-((1-(3-fluoropropyl)azetidin-3-ylidene)methyl)phenyl)-6,7-dihydro-5H-benzo[7]annulene-3-carboxylic acid]"

# More lines, now with the values behind:
SMILES,% Degradation At 0.3 μM [%],DC50 [nM]
"CC1CCc2cc(C(=O)O)ccc2C(c2ccc(C=C3CN(CCCF)C3)cc2)=C1c1ccc(Cl)cc1Cl (racemic) [Example 166, 8-(2,4-Dichlorophenyl)-9-(4-((1-(3-fluoropropyl)azetidin-3-ylidene)methyl)phenyl)-7-methyl-6,7-dihydro-5H-benzo[7]annulene-3-carboxylic acid, racemic mixture]",95,0.6
"CC(=C1CN(CCCF)C1)c1ccc(C2=C(c3ccc(Cl)cc3Cl)CCCc3cc(C(=O)O)ccc32)cc1 [Example 102, 8-(2,4-Dichlorophenyl)-9-(4-(1-(1-(3-fluoropropyl)azetidin-3-ylidene)ethyl)phenyl)-6,7-dihydro-5H-benzo[7]annulene-3-carboxylic acid]",89,0.3
"Cc1ccc(F)cc1C1=C(c2ccc(C=C3CN(CCCF)C3)cc2)c2ccc(C(=O)O)cc2CCC1 [Example 38, 8-(5-fluoro-2-methylphenyl)-9-(4-((1-(3-fluoropropyl)azetidin-3-ylidene)methyl)phenyl)-6,7-dihydro-5H-benzo[7]annulene-3-carboxylic acid]",91,0.2
"O=C(O)c1ccc2c(c1)CCCC(c1ccc3c(c1F)CCC3)=C2c1ccc(C=C2CN(CCC(F)F)C2)cc1 [Example 161, 9-(4-((1-(3,3-difluoropropyl)azetidin-3-ylidene)methyl)phenyl)-8-(4-fluoro-2,3-dihydro-1H-inden-5-yl)-6,7-dihydro-5H-benzo[7]annulene-3-carboxylic acid]",92,1.2
"Cc1cc(Cl)cc(C)c1C1=C(c2ccc(C=C3CN(CCCF)C3)cc2)c2ccc(C(=O)O)cc2CCC1 [Example 83, 8-(4-chloro-2,6-dimethylphenyl)-9-(4-((1-(3-fluoropropyl)azetidin-3-ylidene)methyl)phenyl)-6,7-dihydro-5H-benzo[7]annulene-3-carboxylic acid]",93,0.4
"Cc1ccc(C(F)(F)F)c(C2=C(c3ccc(C=C4CN(CCCF)C4)cc3)c3ccc(C(=O)O)cc3CCC2)c1 [Example 119, 9-(4-((1-(3-fluoropropyl)azetidin-3-ylidene)methyl)phenyl)-8-(5-methyl-2-(trifluoromethyl)phenyl)-6,7-dihydro-5H-benzo[7]annulene-3-carboxylic acid]",94,0.9
"O=C(O)c1ccc2c(c1)CCCC([C@@H]1C[C@H]1C1CCC(F)(F)CC1)=C2c1ccc(C=C2CN(CCCF)C2)cc1 (racemic) [Example 187, 8-(trans-2-(4,4-difluorocyclohexyl)cyclopropyl)-9-(4-((1-(3-fluoropropyl)azetidin-3-ylidene)methyl)phenyl)-6,7-dihydro-5H-benzo[7]annulene-3-carboxylic acid]",86,1.6
"Cc1cc(C=C2CN(CCCF)C2)c(F)cc1C1=C(c2ccc(F)cc2F)CCCc2cc(C(=O)O)ccc21.Cl [Example 15, 8-(2,4-difluorophenyl)-9-(5-fluoro-4-((1-(3-fluoropropyl)azetidin-3-ylidene)methyl)-2-methylphenyl)-6,7-dihydro-5H-benzo[7]annulene-3-carboxylic acid hydrochloride]",87,0.6
"O=C(O)c1ccc2c(c1)CCCC(c1ccc(C3CC3)cc1F)=C2c1ccc(C=C2CN(CCCF)C2)cc1 [Example 34, 8-(4-cyclopropyl-2-fluorophenyl)-9-(4-((1-(3-fluoropropyl)azetidin-3-ylidene)methyl)phenyl)-6,7-dihydro-5H-benzo[7]annulene-3-carboxylic acid]",90,0.3
"O=C(O)c1ccc2c(c1)CCCC(c1cccc3c1CCC3)=C2c1ccc(C=C2CN(CCCF)C2)cc1 [Example 10, 8-(2,3-dihydro-1H-inden-4-yl)-9-(4-((1-(3-fluoropropyl)azetidin-3-ylidene)methyl)phenyl)-6,7-dihydro-5H-benzo[7]annulene-3-carboxylic acid]",90,0.2
"Cc1cc(C2=C(c3ccc(Cl)cc3Cl)CCCc3cc(C(=O)O)ccc32)cc(C)c1C=C1CN(CCCF)C1.Cl [Example 104, 8-(2,4-dichlorophenyl)-9-(4-((1-(3-fluoropropyl)azetidin-3-ylidene)methyl)-3,5-dimethylphenyl)-6,7-dihydro-5H-benzo[7]annulene-3-carboxylic acid hydrochloride]",79,4.9
"Cc1cc(C2CC2)ccc1C1=C(c2ccc(C=C3CN(CCCF)C3)cc2)c2ccc(C(=O)O)cc2CCC1 [Example 39, 8-(4-cyclopropyl-2-methylphenyl)-9-(4-((1-(3-fluoropropyl)azetidin-3-ylidene)methyl)phenyl)-6,7-dihydro-5H-benzo[7]annulene-3-carboxylic acid]",87,0.2
